{
  "source": "patent US6696433B2",
  "about": "“Use of sex steroids function modulators to treat wounds and fibrotic disorders” (Renovo Limited, priority 1996, dated 2004)",
  "key": {"[1]": {"tested_on": "full thickness incisional wounds", "assay": "Incisional wound healing in OVX and sham rats, histology at day 7 post-wounding", "format": "in vivo, Female Sprague Dawley rats", "parameters": "key to NEW COLLAGEN / CELLS: + = little/few; ++++ = lots); key to EPITHELIALISATION: Y = epithelialised", "source_text": "Female Sprague Dawley rats were housed together in three groups (1A, 1B and 1C) of nine to allow for synchronised oestrus cycling. Group 1A were ovariectomised (OVX) 18 days prior to wounding to allow circulating sex hormone levels to be eliminated. Group 1B (control) were untreated and Group 1C had the same operative procedure as the OVX (Group 1A), but without the removal of the ovaries, to ensure that the OVX operative procedure had no effect on the wounding studies (sham).\n17 β-oestradiol (Sigma) was prepared as sterile 0.1% and 1% solutions in phosphate buffered saline (PBS) containing 0.1% and 1% 2-hydroxypropyl-β-cyclodextrin respectively, 2-hydroxypropyl-β-cyclodextrin is used in preparations as a carrier molecule to increase the water solubility of β-oestradiol. PBS/cyclodextrin was used as a vehicle control.\nAnimals from Groups 1A, 1B and 1C were given 4×1 cm length full thickness incisional wounds at 4.5-5.5 cm and 7.5-8.5 cm below the base of the skull, 1 cm either side of the midline. A single 100 μl intradermal injection was then given at each of the four wound sites. Each of the wounds (a total of 36 wounds on 9 rats in each group) received either 100 μl of oestradiol (0.1% or 1%), 100 μl of vehicle control (0.1% or 1% cyclodextrin) or was left unmanipulated (no injection).\nThe wounds were allowed to heal for 7 days after which the wounded tissue was excised for histological analysis.\n7 μm paraffin-embedded sections were stained with H&E and Masson's Trichrome. The rate of re-epithelialisation (at day 7 post-wounding), and wound sizes as determined by planimetry, were determined with image analysis using an Olympus Vanox camera and PC image capture system. Collagen quantity within the wound was determined by two observers blinded to the identity of the specimen."}, "[2]": {"tested_on": "4 mm punch biopsy wounds of the upper inner arm", "assay": "Topical oestrogen patch clinical trial of wound healing in elderly men and women", "format": "in vivo, human", "settings": "patch applied to the wound for 24 hours post-wounding", "experimental": "Approval for this study was given by the local Ethics Committee. Forty health-status defined volunteers split into four groups: (i) GROUP 3A comprised ten women with mean age 76.3 yr (Sd 5.6) who received oestrogen supplements (25 μg/24 hrs of oestradiol) (ii) GROUP 3B comprised ten women with mean age 72.5 yr (Sd 7.1) who received placebo instead of oestrogen. (iii) GROUP 3C comprised ten men with mean age 69.6 yr (Sd 3.6) who received oestrogen supplements (ii) GROUP 3D comprised ten men with mean age 71.8 yr (Sd 8.9) who received placebo instead of oestrogen. After informed consent subjects from each of Groups 3A, 3B, 3C and 3D underwent two 4 mm punch biopsies from the upper inner arm (a non sun-exposed site) following local infiltration with 1 ml 1% lignocaine. Each biopsy of normal skin was bisected and one-half embedded in Optimal Cutting Temperature compound (Miles Inc. Elkhart, Ind.), frozen over liquid nitrogen, and stored at −70° C., and one-half snap-frozen in liquid nitrogen and stored at −70° C. The area for biopsy was covered by a 2×3 cm patch (placebo Groups 3B and 3D or active oestradiol 3A and 3C) through which the biopsies were made. The patch was covered by a Multisorb dry gauze dressing (Smith & Nephew) and both were removed after 24 hrs. The active patches contained sufficient oestradiol such that the wound sites were exposed to 25 μg/24 hrs of oestradiol. Five subjects from Groups 3A, 3B, 3C and 3D underwent re-excision of the wounds at day 7 post-wounding, and the other five subjects from each group at day 84 post-wounding. The left upper inner arm was cleaned with isopropyl alcohol, elliptical excisions of the wounds were made following 1% lignocaine infiltration and two sutures were used to close the gap. Each wound was bisected and processed as described above (3.1.3). 7 μm paraffin-embedded sections were strained with H&E and Masson's Trichrome. The rate of re-epithelialisation (at day 7 post-wounding), and wound sizes as determined by planimetry, were determined with image analysis using an Olympus Vanox camera and PC image capture system. Collagen quantity within the wound was determined by two observers blinded to the identity of the specimen on the following scale +=minimal quantities; ++=less than normal skin; +++=similar to normal skin; ++++=greater than normal skin. The wound stiffness at day 80 was determined using the non-disruptive Dimensional Analysis System (Das). Previous studies have correlated wound breaking strength values (ultimate pressure at failure) to wound stiffness using this system. The system applies a multiaxial load (negative pressure) to the wound and measures the deformation due to the load of two reflective targets placed at the wound edges, using a high resolution camera and video processor. Pressure was applied to a maximum of 100 mmHg and then released, Stiffness was measured between 20 and 80 mmHg."}, "wound repair": {"tested_on": "wound repair", "assay": "Supplementation of individuals with DHEA, wound healing in the aged", "format": "in vivo"}, "[3]": {"settings": "0.1% oestradiol with 0.1% cyclodextrin vehicle, single 100 μl intradermal injection, OVX rats"}, "[4]": {"settings": "0.1% oestradiol with 0.1% cyclodextrin vehicle, single 100 μl intradermal injection, SHAM rats"}, "[5]": {"settings": "1% oestradiol with 1% cyclodextrin vehicle, single 100 μl intradermal injection, OVX rats"}, "[6]": {"settings": "1% oestradiol with 1% cyclodextrin vehicle, single 100 μl intradermal injection, SHAM rats"}},
  "data": [
    {"smiles": "C[C@]12CC[C@@H]3c4ccc(O)cc4CC[C@H]3[C@@H]1CC[C@@H]2O", "note": "[OESTRADIOL, 17 β-oestradiol]", "values": [
      {"measurement": "CELLS", "setting": "[1]; [3]", "value": "+"},
      {"measurement": "EPITHELIALISATION", "setting": "[1]; [3]", "value": "Y"},
      {"measurement": "NEW COLLAGEN", "setting": "[1]; [3]", "value": "++++"},
      {"measurement": "WOUND WIDTH", "setting": "[1]; [3]", "value": "narrow"},
      {"measurement": "EPITHELIALISATION", "setting": "[1]; [4]", "value": "Y"},
      {"measurement": "WOUND WIDTH", "setting": "[1]; [4]", "value": "narrow"},
      {"measurement": "EPITHELIALISATION", "setting": "[1]; [5]", "value": "Y"},
      {"measurement": "WOUND WIDTH", "setting": "[1]; [5]", "value": "narrow"},
      {"measurement": "EPITHELIALISATION", "setting": "[1]; [6]", "value": "Y"},
      {"measurement": "WOUND WIDTH", "setting": "[1]; [6]", "value": "wide"},
      {"measurement": "rate of wound healing", "setting": "[1]; 1% β-oestradiol, OVX group wounds, compared to control PBS treated and unmanipulated wounds", "value": "increased rate of wound healing"},
      {"measurement": "rate of wound healing", "setting": "[1]; single application of 0.1% β-oestradiol, OVX wounds, compared to control wounds", "value": "accelerated wound healing"},
      {"measurement": "rate at which the wound heals", "setting": "[2]", "value": "sufficient to improve the rate at which the wound heals"}
    ]},
    {"smiles": "C[C@]12CC[C@H](O)CC1=CC[C@@H]1[C@@H]2CC[C@]2(C)C(=O)CC[C@@H]12", "note": "[DHEA, Dehydroepiandrosterone]", "values": [
      {"measurement": "rate of wound repair", "setting": "wound repair", "value": "stimulating the rate of wound repair"}
    ]}
  ]
}
